From publication PMC3468400, “Pharmacokinetic profiles of artesunate following multiple intravenous doses of 2, 4, and 8 mg/kg in healthy volunteers: Phase 1b study” (Malaria Journal, 2012)
Where two headings read alike, the source gives them in different places.

Tests used:
[1] = test system: severe falciparum malaria; conditions: AQUAMAT, cited from earlier work
parasitaemia = conditions: cited from earlier work
[2] = human, in vivo, cited from earlier work
[3] = Pharmacokinetics of artesunate (AS) in plasma after multiple intravenous doses, compartmental analysis (Phase 1b); format: in vivo, human; conditions: for Total AUCD1-D3: days 1-3; for half-life / AUC(0-inf) / Cmax / clearance / MRT / AUC: iv; for clearance: read-out: CL_obs; for AUC: 2-8 mg/kg iv, read-out: Mean AUC of AS, range over doses
Experimental: The study was a double blind, ascending multiple doses, alternating group, safety, tolerance, and PK study. […] When the injection was completed, the study nurse recorded tolerance of injection to include both inspection of site and subjects’ responses. Subjects were provided a light lunch at approximately 4 hours after dosing. Normal activities, excluding strenuous exercise, were permitted four hours after dosing. […] During the multiple-dose period, samples were collected immediately before morning dose on days 2 and 3 for additional trough values. All the samples were stored at −80 °C until shipment and were then shipped to a bio-analytical GLP laboratory, Midwest Research Institute (MRI), in Kansas City, MO, USA. The human use protocol numbers for the Phase 1 trial are: USUHS #G183RW; WRIAR #1128; and HSRRB #A-13276.
The analytes were extracted from human plasma with ethyl acetate. […] The reconstituted extracts were analysed on a Micromass Quattro II Mass Spectrometer in the positive ion electrospray ionization (+ESI) mode. […] This method employed a Varian Pursuit C18 column (150 x 2.0 mm, 5-μm particle size) and a gradient elution with the following mobile phases: A: 10 mM ammonium acetate in water with 1% formic acid and B: 10 mM ammonium acetate in acetonitrile with 1% formic acid, for the chromatographic separation.
Calibration standards and QC samples were analysed to evaluate the performance of the assay.
Compartmental (model-dependent) and non-compartment (model-independent) PK analysis are common methods to determine PK parameters, which are acceptable by FDA [21]. In order to compare only the clinically relevant concentrations, the compartmental PK analysis was selected for PK analysis in this study and based on a short-term (2 min) intravenous infusion in accordance with a previous PK evaluation. […] The input of the drug was assumed to follow zero-order kinetics, and elimination from the central compartment occurred with first-order kinetics. Compartmental analysis of concentration-time data for parent drug was performed using the WinNonlin software with an intravenous infusion program. The first-order method with logarithmic transformation of all drug-concentration data was used throughout.
The drug plasma concentrations at the end of an intravenous (IV) infusion (Cmax) were calculated from the corresponding model equations (IV-infusion model, WinNonlin) at the respective time points. The AUC(0-t) (where t = the time point for the last sample on the PK profile in which quantifiable drug was detected) was estimated using linear or linear/log trapezoidal calculations. […] A drug accumulation index was estimated from the AUC values on day 3 (last multiple dose administration) divided by the AUC on day 1 (first multiple dose administration).

[4] = Tolerability and safety of multiple intravenous AS doses in healthy volunteers; format: in vivo, human
Experimental: The study was a double blind, ascending multiple doses, alternating group, safety, tolerance, and PK study. Injectable AS daily for three days was administered intravenously to three groups of the subjects using alternating doses of 2, 4, and 8 mg. All eight subjects in each dose group received either the AS (six subjects) or placebo (two subjects) in a pre-randomized manner. The study physician, after verifying the code with a study nurse, would then inject either the drug or placebo into an injection port at the pre-measured dose over about 2 min as a short-term intravenous infusion; the study nurse recorded the time of study drug reconstitution, infusion start and completion of injection. When the injection was completed, the study nurse recorded tolerance of injection to include both inspection of site and subjects’ responses. Subjects were provided a light lunch at approximately 4 hours after dosing. Normal activities, excluding strenuous exercise, were permitted four hours after dosing. […] During the multiple-dose period, samples were collected immediately before morning dose on days 2 and 3 for additional trough values. All the samples were stored at −80 °C until shipment and were then shipped to a bio-analytical GLP laboratory, Midwest Research Institute (MRI), in Kansas City, MO, USA. The human use protocol numbers for the Phase 1 trial are: USUHS #G183RW; WRIAR #1128; and HSRRB #A-13276.

[5] = test system: severe falciparum malaria; conditions: SEAQUAMAT, cited from earlier work
[6] = severe malaria patients, intravenous treatment
[7] = human, plasma, 2 mg/kg, Day 1, AS 2 mg/kg iv daily for 3 days, 2 min infusion, mean (CV%), n = 6, CA
[8] = human, plasma, 2 mg/kg, Day 2, AS 2 mg/kg iv daily for 3 days, 2 min infusion, mean (CV%), n = 6, CA
[9] = human, plasma, 2 mg/kg, Day 3, AS 2 mg/kg iv daily for 3 days, 2 min infusion, mean (CV%), n = 6, CA
[10] = human, plasma, 4 mg/kg, Day 1, AS 4 mg/kg iv daily for 3 days, 2 min infusion, mean (CV%), n = 6, CA
[11] = human, plasma, 4 mg/kg, Day 2, AS 4 mg/kg iv daily for 3 days, 2 min infusion, mean (CV%), n = 6, CA
[12] = human, plasma, 4 mg/kg, Day 3, AS 4 mg/kg iv daily for 3 days, 2 min infusion, mean (CV%), n = 6, CA
[13] = human, plasma, 8 mg/kg, Day 1, AS 8 mg/kg iv daily for 3 days, 2 min infusion, mean (CV%), n = 6, CA
[14] = human, plasma, 8 mg/kg, Day 2, AS 8 mg/kg iv daily for 3 days, 2 min infusion, mean (CV%), n = 6, CA
[15] = human, plasma, 8 mg/kg, Day 3, AS 8 mg/kg iv daily for 3 days, 2 min infusion, mean (CV%), n = 6, CA
[16] = 2, 4, 8 mg/kg iv daily for three days

C[C@H]1[C@H](OC(=O)CCC(=O)O)O[C@@H]2O[C@@]3(C)CC[C@H]4[C@H](C)CC[C@@H]1[C@@]24OO3 [AS, 4-(10’dihydro-artemisinin-oxymethyl) succinate]
mortality rate [1, 6]: 8.5% | reduction of mortality versus quinine [1]: 22.5% | mean time for clearance of half the parasitaemia (PC50) (parasitaemia; human, in vivo): 3.18 h | duration of the lag phase of the parasitaemia curve (parasitaemia; intravenous AS, previous clinical trials): 1.92 h | lag time of the parasitaemia curve (parasitaemia; oral AS, previous clinical trials): 2.81 h | mean peak level (Cmax) ([2]; iv): 11,343 ng/ml | Cmax ([2]; po): 1.052 µg/mL | Tmax ([3]; Day 1, AS 2 mg/kg iv daily for 3 days, 2 min infusion, n = 6, CA): 2 min | Tmax ([3]; Day 1, AS 4 mg/kg iv daily for 3 days, 2 min infusion, n = 6, CA): 2 min | Tmax ([3]; Day 1, AS 8 mg/kg iv daily for 3 days, 2 min infusion, n = 6, CA): 2 min | Tmax ([3]; Day 3, AS 2 mg/kg iv daily for 3 days, 2 min infusion, n = 6, CA): 2 min | Tmax ([3]; Day 3, AS 4 mg/kg iv daily for 3 days, 2 min infusion, n = 6, CA): 2 min | Tmax ([3]; Day 3, AS 8 mg/kg iv daily for 3 days, 2 min infusion, n = 6, CA): 2 min | peak concentrations of AS, range ([3]; all days, 2, 4, 8 mg/kg iv doses): 16,487-74,588 ng/ml | Total AUCD1-D3 ([3]; AS 2 mg/kg iv daily for 3 days, mean (CV%), n = 6): 4731 (40) ng·h/ml | Total AUCD1-D3 ([3]; AS 4 mg/kg iv daily for 3 days, mean (CV%), n = 6): 10787 (17) ng·h/ml | Total AUCD1-D3 ([3]; AS 8 mg/kg iv daily for 3 days, mean (CV%), n = 6): 18606 (45) ng·h/ml | half-life ([3]; human, in vivo, 2 mg/kg, Day 1, AS 2 mg/kg iv daily for 3 days, 2 min infusion, mean (CV%), n = 6, CA, read-out: t1/2 elimination (converted)): 9.6 min | half-life ([3]; human, in vivo, 2 mg/kg, Day 2, AS 2 mg/kg iv daily for 3 days, 2 min infusion, mean (CV%), n = 6, CA, read-out: t1/2 elimination (converted)): 11.4 min | half-life ([3]; human, in vivo, 2 mg/kg, Day 3, AS 2 mg/kg iv daily for 3 days, 2 min infusion, mean (CV%), n = 6, CA, read-out: t1/2 elimination (converted)): 9 min | half-life ([3]; human, in vivo, 4 mg/kg, Day 1, AS 4 mg/kg iv daily for 3 days, 2 min infusion, mean (CV%), n = 6, CA, read-out: t1/2 elimination (converted)): 12.6 min | half-life ([3]; human, in vivo, 4 mg/kg, Day 2, AS 4 mg/kg iv daily for 3 days, 2 min infusion, mean (CV%), n = 6, CA, read-out: t1/2 elimination (converted)): 13.8 min | half-life ([3]; human, in vivo, 4 mg/kg, Day 3, AS 4 mg/kg iv daily for 3 days, 2 min infusion, mean (CV%), n = 6, CA, read-out: t1/2 elimination (converted)): 12 min | half-life ([3]; human, in vivo, 8 mg/kg, Day 1, AS 8 mg/kg iv daily for 3 days, 2 min infusion, mean (CV%), n = 6, CA, read-out: t1/2 elimination (converted)): 12 min | half-life ([3]; human, in vivo, 8 mg/kg, Day 2, AS 8 mg/kg iv daily for 3 days, 2 min infusion, mean (CV%), n = 6, CA, read-out: t1/2 elimination (converted)): 11.4 min | half-life ([3]; human, in vivo, 8 mg/kg, Day 3, AS 8 mg/kg iv daily for 3 days, 2 min infusion, mean (CV%), n = 6, CA, read-out: t1/2 elimination (converted)): 12 min | AUC(0-inf) [3, 7]: 2.05 µg·h/mL | Cmax [3, 7]: 28.4 µg/mL | clearance [3, 7]: 1.27 L/h/kg | MRT ([3]; human, plasma, 2 mg/kg, Day 1, AS 2 mg/kg iv daily for 3 days, 2 min infusion, mean (CV%), n = 6, CA, read-out: MRT): 4.8 min | AUC(0-inf) [3, 8]: 1.41 µg·h/mL | Cmax [3, 8]: 17.9 µg/mL | clearance [3, 8]: 1.77 L/h/kg | MRT ([3]; human, plasma, 2 mg/kg, Day 2, AS 2 mg/kg iv daily for 3 days, 2 min infusion, mean (CV%), n = 6, CA, read-out: MRT): 4.8 min | AUC(0-inf) [3, 9]: 1.27 µg·h/mL | Cmax [3, 9]: 16.5 µg/mL | clearance [3, 9]: 1.67 L/h/kg | MRT ([3]; human, plasma, 2 mg/kg, Day 3, AS 2 mg/kg iv daily for 3 days, 2 min infusion, mean (CV%), n = 6, CA, read-out: MRT): 4.2 min | AUC(0-inf) [3, 10]: 4.64 µg·h/mL | Cmax [3, 10]: 40.6 µg/mL | clearance [3, 10]: 1.16 L/h/kg | MRT ([3]; human, plasma, 4 mg/kg, Day 1, AS 4 mg/kg iv daily for 3 days, 2 min infusion, mean (CV%), n = 6, CA, read-out: MRT): 4.8 min | AUC(0-inf) [3, 11]: 2.63 µg·h/mL | Cmax [3, 11]: 34.4 µg/mL | clearance [3, 11]: 1.64 L/h/kg | MRT ([3]; human, plasma, 4 mg/kg, Day 2, AS 4 mg/kg iv daily for 3 days, 2 min infusion, mean (CV%), n = 6, CA, read-out: MRT): 4.8 min | AUC(0-inf) [3, 12]: 3.52 µg·h/mL | Cmax [3, 12]: 51.2 µg/mL | clearance [3, 12]: 1.38 L/h/kg | MRT ([3]; human, plasma, 4 mg/kg, Day 3, AS 4 mg/kg iv daily for 3 days, 2 min infusion, mean (CV%), n = 6, CA, read-out: MRT): 4.8 min | AUC(0-inf) [3, 13]: 6.02 µg·h/mL | Cmax [3, 13]: 63.7 µg/mL | clearance [3, 13]: 1.67 L/h/kg | MRT ([3]; human, plasma, 8 mg/kg, Day 1, AS 8 mg/kg iv daily for 3 days, 2 min infusion, mean (CV%), n = 6, CA, read-out: MRT): 6 min | AUC(0-inf) [3, 14]: 6.67 µg·h/mL | Cmax [3, 14]: 74.6 µg/mL | clearance [3, 14]: 1.6 L/h/kg | MRT ([3]; human, plasma, 8 mg/kg, Day 2, AS 8 mg/kg iv daily for 3 days, 2 min infusion, mean (CV%), n = 6, CA, read-out: MRT): 4.8 min | AUC(0-inf) [3, 15]: 5.92 µg·h/mL | Cmax [3, 15]: 67.6 µg/mL | clearance [3, 15]: 1.73 L/h/kg | MRT ([3]; human, plasma, 8 mg/kg, Day 3, AS 8 mg/kg iv daily for 3 days, 2 min infusion, mean (CV%), n = 6, CA, read-out: MRT): 5.4 min | MRT ([3]; human, plasma, 8 mg/kg, range during three days of treatment, 2, 4, 8 mg/kg iv doses, read-out: mean residence time of AS, range): 4.2 to 4.8 min | half-life ([3]; human, plasma, 8 mg/kg, range of means over three days and 2, 4, 8 mg/kg iv doses, read-out: mean elimination half-life of AS, range): 9 to 13.8 min | AUC ([3]; human, plasma, day 1): 2.05 to 6.02 µg·h/mL | AUC ([3]; human, plasma, day 3): 1.27 to 5.92 µg·h/mL | Tmax ([3]; human, plasma, Day 2, AS 2 mg/kg iv daily for 3 days, 2 min infusion, n = 6, CA, read-out: Tmax (converted)): 2 min | Tmax ([3]; human, plasma, Day 2, AS 4 mg/kg iv daily for 3 days, 2 min infusion, n = 6, CA, read-out: Tmax (converted)): 2 min | Tmax ([3]; human, plasma, Day 2, AS 8 mg/kg iv daily for 3 days, 2 min infusion, n = 6, CA, read-out: Tmax (converted)): 2 min | dose dependence of adverse events [4, 16]: no dose-dependent increases in any adverse events | haemodynamic or ECG effects [4, 16]: No deleterious haemodynamic or ECG effects were seen | other laboratory abnormalities [4, 16]: no other clinically significant laboratory abnormalities detected | duration of transient sensation of altered or unusual taste ([4]; associated with higher doses of AS, all cases): less than 30 minutes | tolerability ([4]; daily iv for three days, doses up to 8 mg/kg, healthy volunteers): well tolerated and no serious side effects were observed and safe | reticulocyte count ([4]; peaked four days after dosing, returned to normal by study day 7 in most cases, day 10 in all): dose-related decrease | mortality rate [5, 6]: 15% | reduction of mortality versus quinine [5]: 35%
